Measurements: patent publication US20240316171A1, “COMPOSITIONS AND METHODS FOR TARGETED IMMUNOTHERAPY” (Dana-Farber Cancer Institute, Inc., priority 2018, published 2024)
Read-outs that look alike come from different tables or passages of the source.

Legend:
[1] = Stock solutions/solubility; type: physicochemical; details: thermodynamic from solid
Protocol: Compound 1 was not soluble in buffer solution 50 mM 4-(2-hydroxyethyl)-1-piperazineethanesulfonic acid (HEPES) pH 7 at 2 mg/ml at room temperature overnight. In contrast, DMSO readily dissolved compound 1 at 2 mg/ml forming a clear solution. Compound 2 dissolved immediately at 1.5 mg/ml in buffer solution 50 mM HEPES pH 7 forming a yellow solution.

[2] = Uncaging in samples not treated with H2O2; type: physicochemical
Source text: Fluorescence-detected HPLC confirmed that H2O2 reaction with compound 3 produced the desired product (4). […] Addition of 0.5M EDTA, pH 8.0 (Ultrapure Grade, Boston BioProducts) to the samples remedied the undesired uncaging of the compounds.

[3] = Uncaging of compound 1 with hydrogen peroxide (fluorescence, HPLC); details: relatively high H2O2 concentrations (100 mM), HPLC analysis of products
Protocol: Hydrogen peroxide is expected to uncage compound 1 to produce compound 2. […] 20 μM compound 1 samples were prepared by 1:100 dilution of stock into 50 mM HEPES pH 7 buffer and the reaction started by […] to give final concentrations of 0.3, 0.03 or 0.003 percent. The concentration of the 30% stock H2O2 was confirmed by measuring the absorbance at 240 nm using an extinction coefficient of 43.6 M^−1 cm^−1.
A time-course of the kinetic response of compound 1 to H2O2 at 100 mM H2O2 is illustrated in FIG. 10. Multiple (3) peaks, including compound 1, were observed by HPLC. […] The possible side products are shown below.

[4] = 50 mM HEPES buffer, aqueous buffer, 50 mM HEPES pH 7, compound 1 at room temperature overnight, read-out: solubility in buffer solution

## CC1(C)[C@@H]2CC3OB(c4ccc5c(c4)Oc4cc(B6OC7C[C@@H]8C[C@@H](C8(C)C)[C@]7(C)O6)ccc4C54OC(=O)c5cc(NC(=O)CCOCCOCCNC(=O)CCN6C(=O)C=CC6=O)ccc54)O[C@@]3(C)[C@H]1C2 (stereo partly drawn) [Compound 1, 3-(2,5-dioxo-2,5-dihydro-1H-pyrrol-1-yl)-N-(2-(2-(3-oxo-3-((3-oxo-3′,6′-bis((3aS,4S,6S)-3a,5,5-trimethylhexahydro-4,6-methanobenzo[d][1,3,2]dioxaborol-2-yl)-3H-spiro[isobenzofuran-1,9′-xanthen]-5-yl)amino)propoxy)ethoxy)ethyl)propanamide]
[1]; [4]
  solubility: < 2000 µg/mL
[1]; organic solvent or mixture, DMSO, clear solution, read-out: solubility in DMSO
  solubility: ≥ 2000 µg/mL
[2]
  uncaging without H2O2: Slow uncaging
[3]
  stability of maleimide moiety in the presence of H2O2: maleimide moiety is unstable

## O=C(CCN1C(=O)C=CC1=O)NCCOCCOCCC(=O)Nc1ccc2c(c1)C(=O)OC21c2ccc(O)cc2Oc2cc(O)ccc21 [Compound 2, N-(3′,6′-dihydroxy-3-oxo-3H-spiro[isobenzofuran-1,9′-xanthen]-5-yl)-3-(2-(2-(3-(2,5-dioxo-2,5-dihydro-1H-pyrrol-1-yl)propanamido)ethoxy)ethoxy)propanamide]
[1]; [4]
  solubility: ≥ 1500 µg/mL

## CC1(C)[C@@H]2C[C@H]1C1OB(c3ccc4c(c3)Oc3cc(B5OC6C[C@@H]7C[C@@H](C7(C)C)[C@]6(C)O5)ccc3C43OC(=O)c4cc(NC(=O)CCOCCOCCNC(=O)CCN5C(=O)CC(SC[C@H](N)C(=O)O)C5=O)ccc43)O[C@@]1(C)C2 (stereo partly drawn) [Compound 3, S-(2,5-dioxo-1-(3-oxo-3-((2-(2-(3-oxo-3-((3-oxo-3′-((3aS,4S,6S)-3a,5,5-trimethylhexahydro-4,6-methanobenzo[d][1,3,2]dioxaborol-2-yl)-6′-((4R,6R,7aS)-5,5,7a-trimethylhexahydro-4,6-methanobenzo[d][1,3,2]dioxaborol-2-yl)-3H-spiro[isobenzofuran-1,9′-xanthen]-5-yl)amino)propoxy)ethoxy)ethyl)amino)propyl)pyrrolidin-3-yl)cysteine]
[2]
  uncaging without H2O2: Slow uncaging
